Experimental data taken from article PMC9199882 (Clinical and Translational Science, 2022).
Where two headings read alike, the source gives them in different places.

What was measured:
[1] = Midazolam and 1-hydroxymidazolam plasma PK, DDI study stage 1
prothrombin time = assay: Prothrombin pharmacodynamic analysis of warfarin; conditions: warfarin + asciminib vs warfarin alone
[2] = warfarin 10 mg oral, cited from earlier work
CYP2C9 = assay: Effect of asciminib on CYP2C9 substrate warfarin
[3] = for Cmax, adjusted G mean: linear mixed model
[4] = Repaglinide plasma PK, DDI study stage 2
blood glucose = assay: Blood glucose concentration-time profile of repaglinide; type: in vivo, human; conditions: blood glucose concentration–time profiles, 6 h post-dose, days 1 and 5
CYP2C8 = assay: Effect of asciminib on CYP2C8 substrate repaglinide; conditions: for AUClast G mean ratio (90% CI) / Cmax G mean ratio (90% CI): repaglinide + asciminib / repaglinide
[5] = midazolam 7.5 mg oral; cited from earlier work
CYP3A = assay: Effect of asciminib on CYP3A substrate midazolam; conditions: for AUClast G mean ratio (90% CI) / Cmax G mean ratio (90% CI): midazolam + asciminib / midazolam
[6] = patients with CML, doses of up to 200 mg b.i.d.; cited from earlier work
[7] = patients with CML, 40 mg bid, ref Novartis, unpublished data, cited from earlier work
[8] = cited from earlier work
[9] = warfarin at asciminib steady-state vs warfarin alone
[10] = warfarin 5 mg oral + asciminib 40 mg b.i.d. steady-state, day 11, plasma
[11] = warfarin 5 mg oral alone, day 1, plasma
[12] = warfarin + asciminib 40 mg b.i.d. steady-state
[13] = repaglinide in the presence of asciminib vs alone
[14] = midazolam at asciminib steady-state vs midazolam alone
[15] = ref Novartis, unpublished data, 9, 10

With `OCc1ncc2n1-c1ccc(Cl)cc1C(c1ccccc1F)=NC2` [1-hydroxymidazolam, 1‐hydroxymidazolam] the “metabolite‐to‐parent ratio of G mean AUCinf” value ([1]; midazolam alone) was 0.31, the “metabolite‐to‐parent ratio of G mean AUClast” value ([1]; midazolam alone) was 0.31 and the “metabolite‐to‐parent ratio of G mean AUCinf” value ([1]; midazolam with asciminib) was 0.29. For the same compound, the “metabolite‐to‐parent ratio of G mean AUClast” value ([1]; midazolam with asciminib) was 0.27.
In the case of `CC(=O)CC(c1ccccc1)c1c(O)c2ccccc2oc1=O` (stereo not drawn) [Warfarin, warfarin], the “anticoagulation activity on co‐administration with asciminib” value (prothrombin time) is given as “unaffected”, the Cmax ([2]; read-out: median Cmax) is given as 1700 to 2000 nM and the “median Cmax” value ([2]; converted from μM) is given as 500 to 600 ng/mL. For the same compound, the “median Tmax” value [2] was 2 h.
With `CC(=O)C[C@H](c1ccccc1)c1c(O)c2ccccc2oc1=O` [R‐Warfarin, R‐warfarin] the “increase in AUCinf” value (CYP2C9; [9]) was 25%, the “increase in AUClast” value (CYP2C9; [9]) was 24% and the “increase in Cmax” value (CYP2C9; [9]) was 10%. For the same compound, the “Cmax, G mean (GCV%)” value [3, 10] was 213 (20.4) ng/ml, the “Tmax, median (range)” value [3, 10] was 2.95 (0.94–11.7) h and the “Cmax, G mean (GCV%)” value [3, 11] was 196 (19.6) ng/ml. For the same compound, the “Tmax, median (range)” value [3, 11] was 2.01 (0.99–12.0) h, the “Tmax, median (range)” value ([3]; warfarin 5 mg oral alone, day 1, plasma, listed as R‐warfarin) was 2.0 h and the “Cmax, adjusted G mean” value [3, 12] was 215 ng/mL. For the same compound, the “Cmax, adjusted G mean” value ([3]; warfarin alone) was 196 ng/mL.
Work on `CCOc1cc(CC(=O)N[C@@H](CC(C)C)c2ccccc2N2CCCCC2)ccc1C(=O)O` [Repaglinide, repaglinide] yielded a Cmax ([4]; human, plasma, oral, 0.5 mg) of 6.71 ng/mL, a Cmax ([4]; human, plasma, po, 0.5 mg) of 6.71 ng/mL and a Tmax ([4]; human, plasma, po, 0.5 mg) of 0.75 h. For the same compound, the Vd/F ([4]; human, plasma, po, 0.5 mg) was 162 L, the “CL/F, G mean (GCV%)” value ([4]; repaglinide 0.5 mg oral + asciminib 40 mg b.i.d. steady-state, day 5) was 43.2 (38.2) L/h and the “T 1/2, G mean (GCV%)” value ([4]; repaglinide 0.5 mg oral + asciminib 40 mg b.i.d. steady-state, day 5, plasma) was 2.09 (76.3) h. For the same compound, the “CL/F, G mean (GCV%)” value ([4]; repaglinide 0.5 mg oral alone, day 1) was 46.3 (36.8) L/h, the “T 1/2, G mean (GCV%)” value ([4]; repaglinide 0.5 mg oral alone, day 1, plasma) was 2.42 (46.2) h and the “glucose‐metabolizing activity alone or in combination with asciminib” value (blood glucose) was “no difference”. The “AUClast G mean ratio (90% CI)” value (CYP2C8) was 1.09, the “Cmax G mean ratio (90% CI)” value (CYP2C8) was 1.14 and the “AUClast G mean ratio (90% CI)” value (CYP2C8; listed as repaglinide) was 1.09 (1.03, 1.15). For the same compound, the “Cmax G mean ratio (90% CI)” value (CYP2C8; listed as repaglinide) was 1.14 (1.01, 1.28), the “increase in AUCinf” value (CYP2C8; [13]) was 8% and the “increase in AUClast” value (CYP2C8; [13]) was 9%. For the same compound, the “increase in Cmax” value (CYP2C8; [13]) was 14%.
In the case of `CC(=O)C[C@@H](c1ccccc1)c1c(O)c2ccccc2oc1=O` [S‐Warfarin, S‐warfarin], the “increase in AUClast” value (CYP2C9; [9]) is reported as 39%, the “increase in Cmax” value (CYP2C9; [9]) is reported as 9% and the “Cmax, G mean (GCV%)” value [3, 10] is reported as 225 (17.2) ng/ml. The “Tmax, median (range)” value [3, 10] was 2.00 (0.94–3.99) h, the “Cmax, G mean (GCV%)” value [3, 11] was 209 (18.6) ng/ml and the “Tmax, median (range)” value [3, 11] was 2.00 (0.99–4.00) h. For the same compound, the “Cmax, adjusted G mean” value [3, 12] was 227 ng/mL and the “Cmax, adjusted G mean” value ([3]; warfarin alone) was 209 ng/mL.
For `Cc1ncc2n1-c1ccc(Cl)cc1C(c1ccccc1F)=NC2` [Midazolam, midazolam], the AUC(0-inf) ([1]; human, plasma, oral, AUCinf, adjusted G mean, midazolam alone, linear mixed model) was 37.4 ng·h/mL, the AUC(0-t) ([1]; human, plasma, oral, AUClast, adjusted G mean, midazolam alone, linear mixed model) was 35.4 ng·h/mL and the Cmax ([1]; human, plasma, oral, Cmax, adjusted G mean, midazolam alone, linear mixed model) was 15.9 ng/mL. The Tmax ([1]; human, plasma, po, 4 mg) was 0.51 h, the Vd/F ([1]; human, plasma, po, 4 mg) was 413 L and the “CL/F, G mean (GCV%)” value ([1]; midazolam 4 mg oral + asciminib 40 mg b.i.d. steady-state, day 11) was 83.0 (38.8) L/h. The “AUClast, G mean (GCV%)” value ([1]; midazolam 4 mg oral + asciminib 40 mg b.i.d. steady-state, day 11, plasma) was 44.9 (38.1) ng × h/ml, the “CL/F, G mean (GCV%)” value ([1]; midazolam 4 mg oral alone, day 1) was 107 (31.2) L/h and the “median Cmax” value [5] was 63.1 ng/mL. The “median T 1/2” value [5] was 3.2 h, the “median Tmax” value [5] was 0.34 h and the “AUClast G mean ratio (90% CI)” value (CYP3A) was 1.27. For the same compound, the “Cmax G mean ratio (90% CI)” value (CYP3A) was 1.11, the “AUClast G mean ratio (90% CI)” value (CYP3A; listed as midazolam) was 1.27 (1.14, 1.41) and the “Cmax G mean ratio (90% CI)” value (CYP3A; listed as midazolam) was 1.11 (0.96, 1.28). The “increase in AUCinf” value (CYP3A; [14]) was 28%, the “increase in AUClast” value (CYP3A; [14]) was 27% and the “increase in Cmax” value (CYP3A; [14]) was 11%.
In the case of `O=C(Nc1ccc(OC(F)(F)Cl)cc1)c1cnc(N2CC[C@@H](O)C2)c(-c2ccn[nH]2)c1` [Asciminib, asciminib], the maximum tolerated dose [6] is listed as “not reached”, the “inhibitor classification, CYP2C9” value (CYP2C9; asciminib 40 mg b.i.d.) is listed as “weak inhibitor” and the “Cmax at steady‐state, unbound asciminib” value [7] is listed as 48 nM. For the same compound, the Cmax ([7]; read-out: Cmax at steady‐state, total asciminib) was 1770 nM, the “effect on CYP2C8” value (CYP2C8; asciminib 40 mg b.i.d.) was “no meaningful effect” and the “inhibitor classification, CYP3A” value (CYP3A; human, in vivo) was “weak inhibitor”. The “half‐life (T 1/2)” value [8] was 7 to 15 h, the “unchanged asciminib in urine” value [8] was 2.5% and the “unchanged asciminib share of drug‐related exposure in plasma” value [8] was greater than 90%. The “mean recovery from feces” value ([8]; disposition studies in humans) was 80%, the “clearance pathway: direct glucuronidation by UGT” value ([8]; mainly UGT2B7, UGT2B17, UGT1A3/4, ref Novartis, unpublished data, 9, 10) was 27.9% and the “clearance pathway: oxidation by CYP3A4” value ([8]; part of the CYP oxidation, ref Novartis, unpublished data, 9, 10) was 36%. For the same compound, the “median time to reach the maximum plasma concentration (Tmax)” value ([8]; post‐dose) was 2 to 3 h, the “clearance pathway: biliary secretion by BCRP” value [8, 15] was 31.1% and the “clearance pathway: oxidation by cytochrome P450 enzymes” value [8, 15] was 37.8%.
